Test system: MV-4-11 cells
Assay: Gene expression microarray analysis (Affymetrix PrimeView) and GSEA
Format: cell-based, human
Details: gene C12orf56; ACY-1035 1 mM; LIST F

## Nc1ccc(-c2cccs2)cc1NC(=O)c1ccc2c(c1)cc(C1CC1)n2CCN1CCOCC1 [ACY-1035]
  RFU, C12orf56 (ProbeSet 11735607_a_at): 71.19 RFU
